Several values for one entry are separate records, joined by “and”; a condition that tells them apart may be missing. Identical values can stand only once. e = 2'-O-(2-methoxyethyl) (MOE); d = 2'-deoxy (DNA)
How the values were obtained:
[1] = system: human TGF-beta1 mRNA; assay: Dose-dependent confirmation of antisense inhibition of human TGF-beta1 in HuVEC cells after large-scale synthesis, Lipofectamine 2000, 0.007-15 nM (Example 5); type: cell-based; settings: for percent inhibition of TGF-beta1: Lipofectamine 2000
Description: Cells were plated at a density of 5,000 cells per well and transfected using Lipofectamine™ 2000 reagent with 0.007 nM, 0.021 nM, 0.062 nM, 0.185 nM, 0.556 nM, 1.667 nM, 5 nM, and 15 nM concentrations of antisense oligonucleotide for 4 hours, as specified in Table 5. After a recovery period of approximately 16 hours, RNA was isolated from the cells and TGF-beta1 mRNA levels were measured by quantitative real-time PCR. Human TGF-beta1 primer probe set RTS 2980 was used to measure mRNA levels. TGF-beta1 mRNA levels were adjusted according to total RNA content, as measured by RIBOGREEN®. Results are presented as percent inhibition of TGF-beta1, relative to untreated control cells.

[2] = system: human TGF-beta1 mRNA; assay: Antisense inhibition of human TGF-beta1 mRNA in HuVEC cells, single 10 nM dose, Lipofectamine 2000 (Example 2); type: cell-based
Summary of the method: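 HuVEC cells (5,000/well) transfected with 10 nM 2-13-5 MOE gapmer (phosphorothioate, 5-methylcytosine) via Lipofectamine 2000 for 4 h, then recovered ~24 h. mRNA measured by qRT-PCR, normalized to RIBOGREEN total RNA; percent inhibition versus untreated cells.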

[3] = system: BALB/c mice; settings: mouse, in vivo
Description: (§1) These gapmer oligonucleotides were designed to target human TGF-beta1 and have varying degrees of mismatch with murine TGF-beta1 sequence, as shown in Table 1. Oligo ID Nos. 413982 and 414040 have greater than 3 mismatches to the murine TGF-beta1 sequence. Oligo ID No. 414035 has 2 mismatches to murine TGF-beta1. Oligo ID No. 414036 has no mismatches to murine TGF-beta1.
(§2) BALB/c mice were injected with 25 mg/kg or 50 mg/kg of Oligo ID Nos. 413982, 414035, 414036, or 414040 twice a week for 4 weeks. A control group of mice was injected with phosphate buffered saline (PBS) twice a week for 4 weeks. Plasma transaminase levels were evaluated bi-weekly.
(§3) To evaluate the impact of TGF-beta1 antisense oligonucleotides on the hepatic function of mice described above, plasma concentrations of transaminases were measured using an automated clinical chemistry analyzer (Hitachi Olympus AU400e, Melville, N.Y.).

[4] = system: BALB/c mice; assay: Tolerability in BALB/c mice: plasma transaminases ALT and AST (Example 7); settings: for aspartate transaminase levels: plasma
Description: as §1, §2, §3

[5] = system: human TGF-beta1 mRNA; assay: Dose-dependent confirmation of antisense inhibition of human TGF-beta1 in HuVEC cells, electroporation (Example 6); type: cell-based
Description: The gapmers from Example 5 (see Table 5) were also tested at various doses in HuVEC cells using electroporation as the transfection reagent. Cells were plated at a density of 20,000 cells per well and transfected using electroporation with 0.15625 nM, 0.3125 nM, 0.625 nM, 1.25 nM, 2.5 nM, 5 nM, 10 nM, and 20 nM concentrations of antisense oligonucleotide for 4 hours, as specified in Table 6. After a recovery period of approximately 16 hours, RNA was isolated from the cells and TGF-beta1 mRNA levels were measured by quantitative real-time PCR. TGF-beta1 mRNA levels were adjusted according to total RNA content, as measured by RIBOGREEN®. Results are presented as percent inhibition of TGF-beta1, relative to untreated control cells.

[6] = system: human TGF-beta1 mRNA; assay: Dose-dependent antisense inhibition of human TGF-beta1 in HuVEC cells, Lipofectamine 2000, 0.3292-80 nM, comparison with oligos of U.S. Pat. No. 6,436,909 (Example 4); type: cell-based
Description: The dose-dependent antisense inhibition potential of these gapmers was compared with that of Oligo IDs 104992 and 1138498 from U.S. Pat. No. 6,436,909. Cells were plated at a density of 5,000 cells per well and transfected using Lipofectamine™ 2000 reagent with 0.3292 nM, 0.9877 nM, 2.963 nM, 8.8889 nM, 26.6667 nM, and 80 nM concentrations of antisense oligonucleotide for 4 hours, as specified in Table 4. After a recovery period of approximately 16 hours, RNA was isolated from the cells and TGF-beta1 mRNA levels were measured by quantitative real-time PCR. Human TGF-beta1 primer probe set RTS 2980 was used to measure mRNA levels. TGF-beta1 mRNA levels were adjusted according to total RNA content, as measured by RIBOGREEN®. Results are presented as percent inhibition of TGF-beta1, relative to untreated control cells. […] All the antisense oligonucleotides in Table 4 target human TGF-beta1 mRNA (SEQ ID NO: 1).

## 414036 (antisense GTGTCCTTAAATACAGCCCC; sugars from the 5' end e2 d13 e5, backbone and methylation of C not given here) [compound 414036]
[1]; 0.007 nM
  percent inhibition of TGF-beta1: 5%
[1]; 0.021 nM
  percent inhibition of TGF-beta1: 26%
[1]; 0.062 nM
  percent inhibition of TGF-beta1: 41%
[1]; 0.185 nM
  percent inhibition of TGF-beta1: 58%
[1]; 0.556 nM
  percent inhibition of TGF-beta1: 73%
[1]; 1.667 nM
  percent inhibition of TGF-beta1: 84%
[1]; 5 nM
  percent inhibition of TGF-beta1: 91%
[1]; 15 nM
  percent inhibition of TGF-beta1: 90%
[1]; Lipofectamine 2000, Example 5
  IC50: 0.15 nM
[2]; 10 nM oligonucleotide, HuVEC, relative to untreated control cells, gapmers targeted to SEQ ID NO: 1
  % inhibition: 87%
[2]; threshold lists of Oligo IDs, 10 nM
  inhibition of a TGF-beta1 mRNA: 60% and 65% and 70% and 75% and 80% and 85%
[3]
  tolerability compared to Oligo ID 105204: improved tolerability
[4]; 25 mg/kg twice a week, Week 2
  alanine transaminase levels: 70 IU/L
  aspartate transaminase levels: 119 IU/L
[4]; 25 mg/kg twice a week, Week 4
  alanine transaminase levels: 61 IU/L
  aspartate transaminase levels: 148 IU/L
[4]; 50 mg/kg twice a week, Week 2
  alanine transaminase levels: 99 IU/L
  aspartate transaminase levels: 183 IU/L
[4]; 50 mg/kg twice a week, Week 4
  alanine transaminase levels: 190 IU/L
  aspartate transaminase levels: 467 IU/L
[4]; 25 or 50 mg/kg twice a week for four weeks
  increase in ALT/AST: < 8 fold
[5]; 0.15625 nM oligonucleotide
  percent inhibition of TGF-beta1 mRNA relative to untreated control cells: 10%
[5]; 0.3125 nM oligonucleotide
  percent inhibition of TGF-beta1 mRNA relative to untreated control cells: 38%
[5]; 0.625 nM oligonucleotide
  percent inhibition of TGF-beta1 mRNA relative to untreated control cells: 55%
[5]; 1.25 nM oligonucleotide
  percent inhibition of TGF-beta1 mRNA relative to untreated control cells: 74%
[5]; 2.5 nM oligonucleotide
  percent inhibition of TGF-beta1 mRNA relative to untreated control cells: 83%
[5]; 5.00 nM oligonucleotide
  percent inhibition of TGF-beta1 mRNA relative to untreated control cells: 92%
[5]; 10.00 nM oligonucleotide
  percent inhibition of TGF-beta1 mRNA relative to untreated control cells: 94%
[5]; 20 nM oligonucleotide
  percent inhibition of TGF-beta1 mRNA relative to untreated control cells: 92%
[6]; 0.3292 nM
  percent inhibition of TGF-beta1: 70%
[6]; 0.9877 nM
  percent inhibition of TGF-beta1: 83%
[6]; 2.963 nM
  percent inhibition of TGF-beta1: 91%
[6]; 8.8889 nM
  percent inhibition of TGF-beta1: 93%
[6]; 26.6667 nM
  percent inhibition of TGF-beta1: 92%
[6]; 80.0 nM
  percent inhibition of TGF-beta1: 89%
